Broadly, the bioavailability is the share of a dose that reaches the circulation, judged against a reference dose that is usually intravenous. A low value points to poor availability. For orientation: AUC(0-t) means the area under the concentration-time curve up to a stated or last time point. For orientation: IC50 means the concentration that inhibits the measured activity by half. As usually defined, the Tmax is the time from dosing to the highest level. Broadly, the Cmax is the peak of the concentration-time curve.

Tested on in one data set: not listed separately
Briefly: Oral bioavailability in mouse at 20 mg/kg. The class given is ADME, organism-based. The note with it: in vivo.
The compound `COCCOc1ccccc1N1CCN(C(=O)C2(Oc3ccc(C(F)(F)F)cc3)CCCN(C(=O)c3cnccc3C(F)(F)F)C2)CC1.Cl` (single isomer, unassigned) had a bioavailability of 32%.

Tested on in the next data set: not listed separately
Briefly: AUC (0 to 24 hrs) in mouse at 20 mg/kg, po. More on the design: time < 24 hr, dose 20 mg/kg, route oral. The class given is ADME, organism-based. The note with it: plasma.
Consider `COCCOc1ccccc1N1CCN(C(=O)C2(Oc3ccc(C(F)(F)F)cc3)CCCN(C(=O)c3cnccc3C(F)(F)F)C2)CC1.Cl` (single isomer, unassigned), for which the AUC(0-t) at 24 h worked out at 1.1 µM·h.

For a further data set, the target named is T1, Cytochrome P450 2D6 (Homo sapiens, UniProt P10635). Briefly: Inhibition of CYP2D6 (unknown origin) compound co-incubated with substrate. The class given is ADME.
T1 sequence (P10635 whole entry): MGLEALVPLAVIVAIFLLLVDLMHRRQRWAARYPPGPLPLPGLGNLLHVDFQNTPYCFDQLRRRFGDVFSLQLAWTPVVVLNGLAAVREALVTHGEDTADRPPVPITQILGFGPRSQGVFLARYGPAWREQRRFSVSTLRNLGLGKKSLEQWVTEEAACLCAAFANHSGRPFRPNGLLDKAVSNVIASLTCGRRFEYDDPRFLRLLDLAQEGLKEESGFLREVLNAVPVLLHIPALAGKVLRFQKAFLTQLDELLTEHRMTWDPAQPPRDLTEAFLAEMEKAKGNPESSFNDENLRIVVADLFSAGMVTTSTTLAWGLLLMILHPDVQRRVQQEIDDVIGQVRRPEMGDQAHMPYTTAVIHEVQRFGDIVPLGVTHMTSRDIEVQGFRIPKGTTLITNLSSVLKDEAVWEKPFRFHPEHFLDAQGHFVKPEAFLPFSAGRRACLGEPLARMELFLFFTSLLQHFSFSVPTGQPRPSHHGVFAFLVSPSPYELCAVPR
Conditions: not given
For the compound `COCCOc1ccccc1N1CCN(C(=O)C2(Oc3ccc(C(F)(F)F)cc3)CCCN(C(=O)c3cnccc3C(F)(F)F)C2)CC1.Cl` (single isomer, unassigned), the IC50 is > 30 µM.

Another data set concerns the target T1, Cytochrome P450 2D6. Briefly: Inhibition of CYP2D6 (unknown origin) compound preincubated with substrate.
Conditions: not given
Type of data set: ADME.
For the compound `COCCOc1ccccc1N1CCN(C(=O)C2(Oc3ccc(C(F)(F)F)cc3)CCCN(C(=O)c3cnccc3C(F)(F)F)C2)CC1.Cl` (single isomer, unassigned), the IC50 is > 30 µM.

Tested on in another data set: not listed separately
Briefly: Tmax in mouse at 20 mg/kg, po. The arrangement: dose 20 mg/kg, route oral. Type of data set: ADME, organism-based. The note with it: in vivo.
Take `COCCOc1ccccc1N1CCN(C(=O)C2(Oc3ccc(C(F)(F)F)cc3)CCCN(C(=O)c3cnccc3C(F)(F)F)C2)CC1.Cl` (single isomer, unassigned): the Tmax was found to be 1 h.

Tested on in the next data set: not listed separately
Briefly: Cmax in mouse at 20 mg/kg, po. Particulars: in vivo. The arrangement: dose 20 mg/kg, route oral. Type of data set: ADME, organism-based.
Take `COCCOc1ccccc1N1CCN(C(=O)C2(Oc3ccc(C(F)(F)F)cc3)CCCN(C(=O)c3cnccc3C(F)(F)F)C2)CC1.Cl` (single isomer, unassigned): the Cmax worked out at 700 nM.

The target in the next data set is T2, Cytochrome P450 2C9 (Homo sapiens, UniProt P11712). Briefly: Inhibition of CYP2C9 (unknown origin) compound preincubated with substrate. Type of data set: ADME.
T2 sequence (P11712 whole entry): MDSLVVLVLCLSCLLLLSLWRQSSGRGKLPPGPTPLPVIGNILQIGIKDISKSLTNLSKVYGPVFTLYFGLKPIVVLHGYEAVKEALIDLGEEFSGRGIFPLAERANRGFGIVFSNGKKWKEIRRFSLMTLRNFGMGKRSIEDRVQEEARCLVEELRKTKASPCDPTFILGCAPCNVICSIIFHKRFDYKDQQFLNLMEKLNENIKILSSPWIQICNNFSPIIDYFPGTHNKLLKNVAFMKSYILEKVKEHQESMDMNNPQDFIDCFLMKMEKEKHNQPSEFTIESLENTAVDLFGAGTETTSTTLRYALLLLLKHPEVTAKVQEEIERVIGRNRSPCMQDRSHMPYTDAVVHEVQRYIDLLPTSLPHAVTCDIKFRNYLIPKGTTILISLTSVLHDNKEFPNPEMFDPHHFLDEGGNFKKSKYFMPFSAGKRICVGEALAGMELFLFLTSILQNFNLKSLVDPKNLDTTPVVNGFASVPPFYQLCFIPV
Conditions: not given
For `COCCOc1ccccc1N1CCN(C(=O)C2(Oc3ccc(C(F)(F)F)cc3)CCCN(C(=O)c3cnccc3C(F)(F)F)C2)CC1.Cl` (single isomer, unassigned), the IC50 was > 30 µM.

The target in another data set is Tumour suppressor p53/oncoprotein Mdm2 (Homo sapiens, UniProt Q00987). Briefly: Inhibition of human MDM2/p53 interaction by fluorescence polarization assay. Type of data set: protein assay.
Chain of Tumour suppressor p53/oncoprotein Mdm2 (P04637 whole entry): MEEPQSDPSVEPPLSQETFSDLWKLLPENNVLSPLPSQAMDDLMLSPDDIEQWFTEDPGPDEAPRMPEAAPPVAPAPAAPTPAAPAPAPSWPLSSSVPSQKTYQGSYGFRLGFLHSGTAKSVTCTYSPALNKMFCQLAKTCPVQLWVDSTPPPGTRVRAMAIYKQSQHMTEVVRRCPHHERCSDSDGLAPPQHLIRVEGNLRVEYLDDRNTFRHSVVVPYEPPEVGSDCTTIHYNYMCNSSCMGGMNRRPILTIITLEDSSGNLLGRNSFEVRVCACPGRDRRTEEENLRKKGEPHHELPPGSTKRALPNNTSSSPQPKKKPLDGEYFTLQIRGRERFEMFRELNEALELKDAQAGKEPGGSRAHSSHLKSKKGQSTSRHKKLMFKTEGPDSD
Chain of Tumour suppressor p53/oncoprotein Mdm2 (Q00987 whole entry): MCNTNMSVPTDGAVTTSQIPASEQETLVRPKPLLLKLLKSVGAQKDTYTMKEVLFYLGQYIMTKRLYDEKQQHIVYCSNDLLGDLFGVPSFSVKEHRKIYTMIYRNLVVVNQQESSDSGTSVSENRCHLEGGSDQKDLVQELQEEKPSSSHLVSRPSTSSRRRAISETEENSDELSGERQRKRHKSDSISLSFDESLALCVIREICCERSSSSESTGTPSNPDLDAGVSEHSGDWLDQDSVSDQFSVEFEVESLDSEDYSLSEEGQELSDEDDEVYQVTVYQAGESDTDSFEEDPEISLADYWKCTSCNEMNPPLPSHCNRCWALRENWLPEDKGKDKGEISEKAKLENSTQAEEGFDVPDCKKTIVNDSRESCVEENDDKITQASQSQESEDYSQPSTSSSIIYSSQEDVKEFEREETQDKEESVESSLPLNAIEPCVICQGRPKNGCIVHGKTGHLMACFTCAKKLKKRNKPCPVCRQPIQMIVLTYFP
Conditions: not given
`O=C(NCCc1ccccc1)C1(Oc2ccc(C(F)(F)F)cc2)CCCN(C(=O)C2(c3ccc(Cl)cc3)CC2)C1` (centres undefined) returned a half-maximal inhibitory concentration (IC50) of 1.4 µM.

Compound `O=C(c1cnccc1C(F)(F)F)N1CCCC(Oc2cccc(Cl)c2)(C(=O)N2CCN(c3ccccn3)CC2)C1` (centres undefined) showed an IC50 of 5.2 µM. Still for that read-out and setting: the figure for `O=C(c1cnccc1C(F)(F)F)N1CCCC(Oc2ccc(Cl)cc2)(C(=O)N2CCN(c3ccccn3)CC2)C1` (centres undefined) is 6.7 µM.

`O=C(c1cnccc1C(F)(F)F)N1CCCC(Oc2ccc(F)cc2)(C(=O)N2CCN(c3ccccn3)CC2)C1` (centres undefined) yielded an IC50 of 6 µM. Same read-out and setting: the figure for `O=C(c1cnccc1C(F)(F)F)N1CCCC(Oc2ccc(Br)cc2)(C(=O)N2CCN(c3ccccn3)CC2)C1` (centres undefined) is 1.9 µM.

Turning to `O=C(c1cnccc1C(F)(F)F)N1CCCC(Oc2ccc(Br)c(F)c2)(C(=O)N2CCN(c3ccccn3)CC2)C1` (centres undefined), the IC50 amounted to 2.9 µM. The same measure, in the same setting: in the case of `O=C(c1cnccc1C(F)(F)F)N1CCCC(Oc2ccc(Cl)c(F)c2)(C(=O)N2CCN(c3ccccn3)CC2)C1` (centres undefined) it was 1.4 µM; in that of `Cc1nc2cc(OC3(C(=O)N4CCN(c5ccccn5)CC4)CCCN(C(=O)c4cnccc4C(F)(F)F)C3)ccc2s1` (centres undefined), 41 µM; in that of `O=C(c1cnccc1C(F)(F)F)N1CCCC(Oc2ccc(-c3ccccc3)cc2)(C(=O)N2CCN(c3ccccn3)CC2)C1` (centres undefined), 48 µM. The compound `COc1ccc(OC2(C(=O)N3CCN(c4ccccn4)CC3)CCCN(C(=O)c3cnccc3C(F)(F)F)C2)cc1` (centres undefined) displayed a concentration for half-maximal inhibition (IC50) of 33 µM. `Cc1ccc(OC2(C(=O)N3CCN(c4ccccn4)CC3)CCCN(C(=O)c3cnccc3C(F)(F)F)C2)cc1` (centres undefined) yielded an IC50 of 1.5 µM. With `O=C(c1cnccc1C(F)(F)F)N1CCCC(Oc2ccc(C(F)(F)F)cc2)(C(=O)N2CCN(c3ccccn3)CC2)C1` (centres undefined), the concentration for half-maximal inhibition (IC50) was determined as 2.3 µM. For the compound `O=C(c1cnccc1C(F)(F)F)N1CCCC(Oc2ccc(C(F)(F)F)cc2)(C(=O)N2CCN(c3ccccc3)CC2)C1` (centres undefined), the concentration for half-maximal inhibition (IC50) came to 2.8 µM. Consider `O=C(c1cnccc1C(F)(F)F)N1CCCC(Oc2ccc(C(F)(F)F)cc2)(C(=O)N2CCN(c3ccncn3)CC2)C1` (centres undefined), for which the concentration for half-maximal inhibition (IC50) came out at 18 µM. For `O=C(c1cnccc1C(F)(F)F)N1CCCC(Oc2ccc(C(F)(F)F)cc2)(C(=O)N2CCN(c3ncccn3)CC2)C1` (centres undefined), 35 µM corresponded to half-maximal inhibition (IC50). The same measure, in the same setting: the figure for `O=C(c1cnccc1C(F)(F)F)N1CCCC(Oc2ccc(C(F)(F)F)cc2)(C(=O)N2CCN(C3CCCCC3)CC2)C1` (centres undefined) is 4.2 µM; for `CC(=O)N1CCN(C(=O)C2(Oc3ccc(C(F)(F)F)cc3)CCCN(C(=O)c3cnccc3C(F)(F)F)C2)CC1` (centres undefined) it is 36 µM; for `CN1CCN(C(=O)C2(Oc3ccc(C(F)(F)F)cc3)CCCN(C(=O)c3cnccc3C(F)(F)F)C2)CC1` (centres undefined) it is 12 µM. Still for that read-out and setting: in the case of `O=C(c1cnccc1C(F)(F)F)N1CCCC(Oc2ccc(C(F)(F)F)cc2)(C(=O)N2CCN(Cc3ccccc3)CC2)C1` (centres undefined) it was 39 µM; in that of `O=C(c1cnccc1C(F)(F)F)N1CCCC(Oc2ccc(C(F)(F)F)cc2)(C(=O)N2CC=C(c3ccccc3)CC2)C1` (centres undefined), 1.4 µM; in that of `O=C(c1cnccc1C(F)(F)F)N1CCCC(Oc2ccc(C(F)(F)F)cc2)(C(=O)N2CCC(c3ccccn3)C2)C1` (centres undefined), 3.7 µM. `O=C(c1cnccc1C(F)(F)F)N1CCCC(Oc2ccc(C(F)(F)F)cc2)(C(=O)N2CCc3ccccc3C2)C1` (centres undefined) had a 50% inhibitory concentration (IC50) of 1.4 µM. The compound `O=C(c1cnccc1C(F)(F)F)N1CCCC(Oc2ccc(C(F)(F)F)cc2)(C(=O)NCc2ccc(Cl)cc2)C1` (centres undefined) yielded an IC50 of 1.5 µM. `O=C(c1cnccc1C(F)(F)F)N1CCCC(Oc2ccc(C(F)(F)F)cc2)(C(=O)NCCc2ccccc2)C1` (centres undefined): the IC50 was found to be 3.5 µM. Still for that read-out and setting: in the case of `COc1cccc(N2CCN(C(=O)C3(Oc4ccc(C(F)(F)F)cc4)CCCN(C(=O)c4cnccc4C(F)(F)F)C3)CC2)c1` (centres undefined) it was > 50 µM; in that of `COc1ccc(N2CCN(C(=O)C3(Oc4ccc(C(F)(F)F)cc4)CCCN(C(=O)c4cnccc4C(F)(F)F)C3)CC2)cc1` (centres undefined), 23 µM; in that of `O=C(c1cnccc1C(F)(F)F)N1CCCC(Oc2ccc(C(F)(F)F)cc2)(C(=O)N2CCN(c3ccccc3O)CC2)C1` (centres undefined), 0.97 µM. On the same count and under the same terms, in the case of `CCOc1ccccc1N1CCN(C(=O)C2(Oc3ccc(C(F)(F)F)cc3)CCCN(C(=O)c3cnccc3C(F)(F)F)C2)CC1` (centres undefined) it was 0.59 µM; in that of `CC(=O)Nc1ccccc1N1CCN(C(=O)C2(Oc3ccc(C(F)(F)F)cc3)CCCN(C(=O)c3cnccc3C(F)(F)F)C2)CC1` (centres undefined), 0.38 µM.

Consider `CCC(=O)Nc1ccccc1N1CCN(C(=O)C2(Oc3ccc(C(F)(F)F)cc3)CCCN(C(=O)c3cnccc3C(F)(F)F)C2)CC1` (centres undefined), for which 0.37 µM corresponded to half-maximal inhibition (IC50).

Turning to `COCC(=O)Nc1ccccc1N1CCN(C(=O)C2(Oc3ccc(C(F)(F)F)cc3)CCCN(C(=O)c3cnccc3C(F)(F)F)C2)CC1` (centres undefined), the midpoint of inhibition, the IC50, lay at 0.54 µM. `CN(C)CC(=O)Nc1ccccc1N1CCN(C(=O)C2(Oc3ccc(C(F)(F)F)cc3)CCCN(C(=O)c3cnccc3C(F)(F)F)C2)CC1` (centres undefined) came in with a 50% inhibitory concentration (IC50) of 0.67 µM. On the same count and under the same terms, in the case of `CN(C)CCC(=O)Nc1ccccc1N1CCN(C(=O)C2(Oc3ccc(C(F)(F)F)cc3)CCCN(C(=O)c3cnccc3C(F)(F)F)C2)CC1` (centres undefined) it was 0.59 µM; in that of `CN(C)CCCC(=O)Nc1ccccc1N1CCN(C(=O)C2(Oc3ccc(C(F)(F)F)cc3)CCCN(C(=O)c3cnccc3C(F)(F)F)C2)CC1` (centres undefined), 1.08 µM; in that of `Cc1cc(CC(=O)Nc2ccccc2N2CCN(C(=O)C3(Oc4ccc(C(F)(F)F)cc4)CCCN(C(=O)c4cnccc4C(F)(F)F)C3)CC2)on1` (centres undefined), 0.63 µM.

`O=C(CC1NC(=O)NC1=O)Nc1ccccc1N1CCN(C(=O)C2(Oc3ccc(C(F)(F)F)cc3)CCCN(C(=O)c3cnccc3C(F)(F)F)C2)CC1` (centres undefined): half-maximal inhibition (IC50) required 0.27 µM. Compound `O=C(c1ccccc1C(F)(F)F)N1CCCC(Oc2ccc(C(F)(F)F)cc2)(C(=O)N2CCN(c3ccccn3)CC2)C1` (centres undefined) returned an IC50 of 6.5 µM. As to `O=C(N1CCN(c2ccccn2)CC1)C1(Oc2ccc(C(F)(F)F)cc2)CCCN(Cc2ccccc2C(F)(F)F)C1` (centres undefined), the half-inhibitory concentration (IC50) turned out to be 14 µM. `CCCN1CCCC(Oc2ccc(C(F)(F)F)cc2)(C(=O)N2CCN(c3ccccn3)CC2)C1` (centres undefined) came in with an IC50 of 6.5 µM. On the same count and under the same terms, the figure for `CC(C)(C)CCN1CCCC(Oc2ccc(C(F)(F)F)cc2)(C(=O)N2CCN(c3ccccn3)CC2)C1` (centres undefined) is 6.9 µM; for `O=C(N1CCN(c2ccccn2)CC1)C1(Oc2ccc(C(F)(F)F)cc2)CCCN(CC2CCCCC2)C1` (centres undefined) it is 5.1 µM. Still for that read-out and setting: in the case of `CC(C)(C)CC(=O)N1CCCC(Oc2ccc(C(F)(F)F)cc2)(C(=O)N2CCN(c3ccccn3)CC2)C1` (centres undefined) it was 3 µM; in that of `CC(C)(C)C(=O)N1CCCC(Oc2ccc(C(F)(F)F)cc2)(C(=O)N2CCN(c3ccccn3)CC2)C1` (centres undefined), 22 µM; in that of `O=C(N1CCN(c2ccccn2)CC1)C1(Oc2ccc(C(F)(F)F)cc2)CCCN(C(=O)C2(c3ccc(Cl)cc3)CC2)C1` (centres undefined), 1.9 µM. The same measure, in the same setting: the figure for `O=C(N1CCN(c2ccccn2)CC1)C1(Oc2ccc(C(F)(F)F)cc2)CCCN(S(=O)(=O)c2ccccc2)C1` (centres undefined) is 26 µM; for `O=C(N1CCN(c2ccccn2)CC1)C1(Oc2ccc(C(F)(F)F)cc2)CCCN(S(=O)(=O)c2ccccc2C(F)(F)F)C1` (centres undefined) it is 41 µM.

On to `O=C(N1CCN(c2ccccn2)CC1)C1(Oc2ccc(C(F)(F)F)cc2)CCCN(S(=O)(=O)c2ccccc2Cl)C1` (centres undefined), for which half-maximal inhibition (IC50) required 31 µM. In turn, `O=C(N1CCN(c2ccccn2)CC1)C1(Oc2ccc(C(F)(F)F)cc2)CCCN(S(=O)(=O)c2ccc(Cl)cc2)C1` (centres undefined) yielded a half-inhibitory concentration (IC50) of 50 µM. Compound `CC(C)S(=O)(=O)N1CCCC(Oc2ccc(C(F)(F)F)cc2)(C(=O)N2CCN(c3ccccn3)CC2)C1` (centres undefined) had a 50% inhibitory concentration (IC50) of 6.9 µM. `O=C(c1cnccc1C(F)(F)F)N1CCCC(Oc2ccccc2Cl)(C(=O)N2CCN(c3ccccn3)CC2)C1` (centres undefined) registered an IC50 of 21 µM.

Tested on in a further data set: not listed separately
Briefly: AUC (0 to 24 hrs) in mouse at 20 mg/kg, iv. Type of data set: ADME, organism-based. The arrangement: time < 24 hr, dose 20 mg/kg, route intravenous. Particulars: plasma.
`COCCOc1ccccc1N1CCN(C(=O)C2(Oc3ccc(C(F)(F)F)cc3)CCCN(C(=O)c3cnccc3C(F)(F)F)C2)CC1.Cl` (single isomer, unassigned) registered an area under the curve AUC(0-t) at 24 h of 3.4 µM·h.

In another data set the target is T2, Cytochrome P450 2C9. Briefly: Inhibition of CYP2C9 (unknown origin) compound co-incubated with substrate. Type of data set: ADME.
Conditions: not given
Take `COCCOc1ccccc1N1CCN(C(=O)C2(Oc3ccc(C(F)(F)F)cc3)CCCN(C(=O)c3cnccc3C(F)(F)F)C2)CC1.Cl` (single isomer, unassigned): the half-inhibitory concentration (IC50) was > 30 µM.

Source of the values: ChEMBL document CHEMBL3112574, “Substituted piperidines as HDM2 inhibitors” (Bioorg Med Chem Lett, 2014).
